Source: patent US9925189B2, “Heterocyclic receptor agonists for the treatment of diabetes and metabolic disorders” (CymaBay Therapeutics, Inc., priority 2006, dated 2018)

Target: T1, IC-GPCR2 (Homo sapiens, UniProt Q8TDV5, S309L)
T1 construct: expressed in transfected cells
T1 sequence (Q8TDV5 1-335 S309L): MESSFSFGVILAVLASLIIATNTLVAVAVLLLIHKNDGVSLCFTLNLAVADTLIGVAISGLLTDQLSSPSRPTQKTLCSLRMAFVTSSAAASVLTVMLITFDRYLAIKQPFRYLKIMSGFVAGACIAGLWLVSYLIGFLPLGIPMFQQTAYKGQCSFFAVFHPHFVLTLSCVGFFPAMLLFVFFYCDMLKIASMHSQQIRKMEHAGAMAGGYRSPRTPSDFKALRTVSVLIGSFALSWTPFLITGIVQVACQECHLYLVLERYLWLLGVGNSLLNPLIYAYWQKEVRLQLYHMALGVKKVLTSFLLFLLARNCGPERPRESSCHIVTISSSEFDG
Assay: Stimulation of cAMP in CHO cells stably expressing IC-GPCR2 (HTRF cAMP assay)
Type: cell-based
Conditions: 0.5 h, 30 minutes, IC-GPCR2 stably expressing CHO cells, read-out: Activity at 10 uM (% change in FRET signal from DMSO control)
Experimental: This assay was developed using a stable cell line expressing IC-GPCR-2, generated as follows. IC-GPCR2 (SEQ ID NO:1) was cloned into Gateway pDEST 40vector (Invitrogen), using the Gateway cloning system (invitrogen) according to the manufacturer's instructions. A stable cell line was generated by transfecting a 10 cm plate of CHO cells (source) with 8 ug of this construct using Transit-CHO transfection kit (Mirus). CHO cells were plated the day prior to transfection at a density of 3,000,000 cells/plate. Clones were selected using the antibiotic G418 at 500 ug/ml. 23 clones were picked and assayed for the expression of the receptor by measuring changes in intracellular cAMP levels in response to an IC-GPCR2 agonist.
To measure cAMP activity in response to IC-GPCR2 agonist, the clones were plated in 96 well plates at 17500 cells per well. On the day after plating, cells were incubated with the IC-CPCR2 agonist at […] for 30 minutes in Ham's F12 Media (Gibco) with 0.04% DMSO. cAMP was measured using the cAMP dynamic kit from Cis Bio (Bedford, Mass.) according to the manufacturer's instructions. Briefly, cells were lysed, and cAMP levels determined by competitive immunoassay using D2 labeled cAMP, and europium cryptate tagged anti cAMP antibody. When in close proximity, the D2 and europium cryptate undergo fluorescence resonance energy transfer (FRET), which is measured as a fluorescence ratio (665 nm/620 nm). Unlabelled cAMP in the cell lysate competed with the D2 labeled cAMP for the europium crypate labeled antibody. The resulting decrease in FRET signal corresponded to intracellular cAMP levels. Fluorescence was read on a BMG Labtech PHERAstar, software version 1.50.
Compounds were dissolved in 100% DMSO to a concentration of […] to provide stock solutions. To determine activity against IC-GPCR2, compounds were incubated with IC-GPCR2 stably expressing cells (described above), at 6-8 concentrations ranging from 0.00003 to 10 micromolar, in 96 well plates, in 50 ul of Hams F12 media for 30 minutes. Cells were plated at 17500 cells per well 1 day before running the assay. All compounds were also screened against the parental CHO cells. cAMP was measured using the cAMP dynamic kit from Cis Bio (Bedford, Mass.), according to the manufacturer's instructions. Briefly, cells were lysed and cAMP levels determined by competitive immunoassay using D2 labeled cAMP, and europium cryptate tagged anti cAMP antibody. When in close proximity, the D2 and europium cryptate undergo fluorescence resonance energy transfer (FRET), which is measured as a fluorescence ratio (665 nm/620 nm). Unlabelled cAMP in the cell lysate competed with the D2 labeled cAMP for the europium crypate labeled antibody. The resulting decrease in FRET signal corresponded to intracellular cAMP levels.
Activities of compounds disclosed in Table 1 and Table 2 below are expressed as the % change in FRET signal from DMSO control. “*” no activity observed when tested at 10 micromolar but no higher concentrations were tested. NT indicates the compound was not tested at the indicated concentration.

Row | activation at 10 µM [%] | Compound
1 | 81 | C[C@H]1CN(C(=O)OC(C)(C)C)CC[C@H]1c1nc(COc2ccc(-n3cnnn3)cc2)cs1 (stereo in doubt) [Example 144, 3-Methyl-4-[4-(4-tetrazol-1-yl-phenoxymethyl)-thiazol-2-yl]-piperidine-1-carboxylic acid tert-butyl ester]
2 | 73 | C[C@H]1CN(C(=O)OC(C)(C)C)CC[C@H]1c1nc(COc2ccc(-n3cnnn3)cc2F)cs1 (stereo in doubt) [Example 145, 4-[4-(2-Fluoro-4-tetrazol-1-yl-phenoxymethyl)-thiazol-2-yl]-3-methyl-piperidine-1-carboxylic acid tert-butyl ester]
3 | 78 | CCc1cnc(N2CC[C@@H](c3nc(COc4ccc(-n5cnnn5)cc4)cs3)[C@@H](C)C2)nc1 (stereo in doubt) [Example 199, 5-Ethyl-2-{3-methyl-4-[4-(4-tetrazol-1-yl-phenoxymethyl)-thiazol-2-yl]-piperidin-1-yl}-pyrimidine]
4 | 82 | CCc1cnc(N2CC[C@@H](c3nc(COc4ccc(-n5cnnn5)cc4F)cs3)[C@@H](C)C2)nc1 (stereo in doubt) [Example 200, 5-Ethyl-2-{4-[4-(2-fluoro-4-tetrazol-1-yl-phenoxymethyl)-thiazol-2-yl]-3-methyl-piperidin-1-yl}-pyrimidine]
5 | 87 | C[C@H]1CN(c2ncc(Cl)cn2)CC[C@H]1c1nc(COc2ccc(-n3cnnn3)cc2F)cs1 (stereo in doubt) [Example 201, 5-Chloro-2-{4-[4-(2-fluoro-4-tetrazol-1-yl-phenoxymethyl)-thiazol-2-yl]-3-methyl-piperidin-1-yl}-pyrimidine]
6 | 83 | C[C@H]1CN(c2ncc(C(F)(F)F)cn2)CC[C@H]1c1nc(COc2ccc(-n3cnnn3)cc2F)cs1 (stereo in doubt) [Example 202, 2-{4-[4-(2-Fluoro-4-tetrazol-1-yl-phenoxymethyl)-thiazol-2-yl]-3-methyl-piperidin-1-yl}-5-trifluoromethyl-pyrimidine]
7 | 69 | CC(C)(C)OC(=O)N1CCC(c2nc(COc3ccc(S(C)(=O)=O)cc3)cs2)CC1 [Example 1, 4-[4-(4-Methanesulfonyl-phenoxymethyl)-thiazol-2-yl]-piperidine-1-carboxylic acid tert-butyl ester]
8 | 50 | CC(C)(C)OC(=O)N1CCC(c2nc(COc3ccc(-n4ccnc4)cc3)cs2)CC1 [Example 2, 4-[4-(4-Imidazol-1-yl-phenoxymethyl)-thiazol-2-yl]-piperidine-1-carboxylic acid tert-butyl ester]
9 | 63 | CC(=O)Nc1ccc(OCc2csc(C3CCN(C(=O)OC(C)(C)C)CC3)n2)cc1 [Example 3, 4-[4-(4-Acetylamino-phenoxymethyl)-thiazol-2-yl]-piperidine-1-carboxylic acid tert-butyl ester]
10 | 60 | CC(C)(C)OC(=O)N1CCC(c2nc(COc3ccc(-n4cncn4)cc3)cs2)CC1 [Example 5, 4-[4-(4-[1,2,4]Triazol-1-yl-phenoxymethyl)-thiazol-2-yl]-piperidine-1-carboxylic acid tert-butyl ester]
11 | 68 | CC(C)(C)OC(=O)N1CCC(c2nc(COc3ccc(N4CCCC4=O)cc3)cs2)CC1 [Example 6, 4-{4-[4-(2-Oxo-pyrrolidin-1-yl)-phenoxymethyl]-thiazol-2-yl}-piperidine-1-carboxylic acid tert-butyl ester]
12 | 64 | CC(C)(C)OC(=O)N1CCC(c2nc(COc3ccc(-n4cnnn4)cc3)cs2)CC1 [Example 7, 4-[4-(4-Tetrazol-1-yl-phenoxymethyl)-thiazol-2-yl]-piperidine-1-carboxylic acid tert-butyl ester]
13 | 54 | CCc1cnc(N2CCC(c3nc(COc4ccc(S(N)(=O)=O)cc4)cs3)CC2)nc1 [Example 9, 4-{2-[1-(5-Ethyl-pyrimidin-2-yl)-piperidin-4-yl]-thiazol-4-ylmethoxy}-benzenesulfonamide]
14 | 34 | CCc1cnc(N2CCC(c3nc(COc4cccc(-n5cnnn5)c4)cs3)CC2)nc1 [Example 11]
15 | 70 | CCc1cnc(N2CCC(c3nc(COc4ccc(-n5nnnc5C)cc4)cs3)CC2)nc1 [Example 12, 5-Ethyl-2-(4-{4-[4-(5-methyl-tetrazol-1-yl)-phenoxymethyl]-thiazol-2-yl}-piperidin-1-yl)-pyrimidine]
16 | 94 | CCc1cnc(N2CCC(c3nc(COc4ccc(SC)c(C)c4)cs3)CC2)nc1 [Example 13]
17 | 84 | CCc1cnc(N2CCC(c3nc(COc4ccc(S(C)(=O)=O)c(C)c4)cs3)CC2)nc1 [Example 14, 5-Ethyl-2-{4-[4-(4-methanesulfonyl-3-methyl-phenoxymethyl)-thiazol-2-yl]-piperidin-1-yl}-pyrimidine]
18 | 55 | CCc1cnc(N2CCC(c3nc(COc4ccc5sc(=O)oc5c4)cs3)CC2)nc1 [Example 15, 6-{2-[1-(5-Ethyl-pyrimidin-2-yl)-piperidin-4-yl]-thiazol-4-ylmethoxy}-benzo[1,3]oxathiol-2-one]
19 | 56 | CCc1cnc(N2CCC(c3nc(COc4ccc(SC(F)(F)F)cc4)cs3)CC2)nc1 [Example 16, 5-Ethyl-2-{4-[4-(4-trifluoromethylsulfanyl-phenoxymethyl)-thiazol-2-yl]-piperidin-1-yl}-pyrimidine]
20 | 69 | CC(C)(C)OC(=O)N1CCC(c2nc(COc3ccc(-n4cnnn4)c(F)c3)cs2)CC1 [Example 17, 4-[4-(3-Fluoro-4-tetrazol-1-yl-phenoxymethyl)-thiazol-2-yl]-piperidine-1-carboxylic acid tert-butyl ester]
21 | 72 | CC(C)(C)OC(=O)N1CCC(c2nc(COc3ccc(S(C)(=O)=O)cc3F)cs2)CC1 [Example 18, 4-[4-(2-Fluoro-4-methanesulfonyl-phenoxymethyl)-thiazol-2-yl]-piperidine-1-carboxylic acid tert-butyl ester]
22 | 76 | CC(C)(C)OC(=O)N1CCC(c2nc(COc3ccc(-n4cnnn4)cc3F)cs2)CC1 [Example 19, 4-[4-(2-Fluoro-4-tetrazol-1-yl-phenoxymethyl)-thiazol-2-yl]-piperidine-1-carboxylic acid tert-butyl ester]
23 | 23 | CC(C)(C)OC(=O)N1CCC(c2nc(CS(=O)(=O)c3ccc(S(C)(=O)=O)cc3)cs2)CC1 [Example 21, 4-[4-(4-Methanesulfonyl-benzenesulfonylmethyl)-thiazol-2-yl]-piperidine-1-carboxylic acid tert-butyl ester]
24 | 62 | CC(C)OC(=O)N1CCC(c2nc(COc3ccc(S(C)(=O)=O)cc3)cs2)CC1 [Example 22, 4-[4-(4-Methanesulfonyl-phenoxymethyl)-thiazol-2-yl]-piperidine-1-carboxylic acid isopropyl ester]
25 | 37 | CS(=O)(=O)c1ccc(OCc2csc(C3CCN(C(=O)OCc4ccccc4)CC3)n2)cc1 [Example 23, 4-[4-(4-Methanesulfonyl-phenoxymethyl)-thiazol-2-yl]-piperidine-1-carboxylic acid benzyl ester]
26 | 58 | CC(C)COC(=O)N1CCC(c2nc(COc3ccc(S(C)(=O)=O)cc3)cs2)CC1 [Example 24, 4-[4-(4-Methanesulfonyl-phenoxymethyl)-thiazol-2-yl]-piperidine-1-carboxylic acid isobutyl ester]
